Target: T1, human recombinant AR-LBD (Homo sapiens, UniProt P10275)
T1 sequence (P10275 664-920): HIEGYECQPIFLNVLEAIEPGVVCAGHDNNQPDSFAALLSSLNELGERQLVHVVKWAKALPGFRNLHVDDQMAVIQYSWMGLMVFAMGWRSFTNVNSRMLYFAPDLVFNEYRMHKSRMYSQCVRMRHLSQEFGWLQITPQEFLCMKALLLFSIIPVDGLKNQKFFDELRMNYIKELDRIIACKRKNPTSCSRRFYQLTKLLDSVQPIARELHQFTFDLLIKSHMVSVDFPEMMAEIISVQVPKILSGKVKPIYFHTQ
Test: microscale thermophoresis
Format: binding
Conditions: […] 3d, […] His-tagged AR-LBD, […] Tris, […] NaCl, pH […] DTT, […] Tween; labelled protein

With `Cc1c2c(nn1-c1ccc(F)cc1)C[C@@H]1CC[C@@H]3[C@H](CC[C@]4(C)[C@@H](O)CC[C@@H]34)[C@@]1(C)C2` [3d] the microscale thermophoresis was “confirmed thus binding of 3d into the AR-LBD”.
